# In patent US11944612B2, “Dosing regimens for 2-hydroxy-6-((2-(1-isopropyl-1H-pyrazol-5-yl)pyridin-3-yl)methoxy)benzaldehyde” (Global Blood Therapeutics, Inc., priority 2015, dated 2024):
# How the values were obtained:
# hemoglobin [1] = target: hemoglobin (Homo sapiens, UniProt P68871+P69905); conditions: in vitro and in vivo; cited from earlier work
# [2] = Phase I study: whole blood and plasma pharmacokinetics of GBT440 (LC-MS-MS); type: in vivo, human; conditions: for half-life: human, whole blood, oral
# Experimental: (§1) The following example presents a Phase I randomised, placebo-controlled, double-blind, single and multiple ascending dose study of the tolerability and pharmacokinetics of Compound 1 (GBT440) in healthy subjects and patients with Sickle Cell Disease.
# (§2) Experimental: GBT440 • Subjects randomized 6:2 to receive daily oral dosing of GBT440 or placebo for 1 day (single dose) and up to 28 days (multiple dose)
# Analysis of whole blood was performed as follows. 50 μL of diluted whole blood was mixed with 20 μL of GBT1592 (GBT440-D7) solution in acetonitrile. 0.3 mL of 0.1M citrate buffer solution (pH 3) was added to the sample, and the sample mixed briefly by vortexing, followed by sonication for 10 minutes. 2.0 mL methyl tert butyl ether (MTBE) was added to the sample, and the sample was capped, and mixed thoroughly by vortexing at high speed for 20 minutes. The sample was then centrifuged at 3300 rpm at room temperature for 10 minutes. 0.2 mL of the clear organic layer of the centrifuged sample was then transferred to a clean 96-well 2-mL plate, and the solvent was evaporated to dryness. […] The resultant reconstituted extract was analyzed by liquid chromatography mass spectrometry (LCMS).
# For the LCMS, a Sciex API 4000 LC-MS-MS was equipped with an HPLC column. The peak area of the m/z 338.1→158.1 GBT440 product ion was measured against the peak area of the m/z 345.2→159.1 GBT1592 (GBT440-D7) internal standard product ion.
# The whole blood samples, obtained as described above, were analyzed for pharmacokinetic parameters and RBC:Plasma ratios, as follows.
# Terminal half-life and other pharmacokinetic parameters were calculated using Phoenix WinNonlin software. Apparent terminal half-life (t1/2) values were calculated as ln(2)/k, where k is the terminal elimination rate constant which is obtained by performing a linear regression on the terminal phase of a plot of the natural logarithm (ln) of concentration versus time.
# RBC:Plasma ratio was calculated using the equation below. […]
# hemoglobin [3] = target: T1, hemoglobin (Homo sapiens, UniProt P68871+P69905, E7V); experiment: Whole blood hemoximetry (oxygen equilibrium curves, % Hb modification); type: in vivo; conditions: 500 mg
# T1 construct: from tissue; host or cells: whole blood (red blood cells) of study subjects
# Experimental: Whole blood hemoximetry was used to measure oxygen equilibration. Blood from healthy volunteers and sickle cell disease (SCD) patients was drawn into 1.8 mL sodium citrate tubes. These samples were stored overnight at 4° C. prior to hemoximetry measurements. Based upon the hematocrit of the blood, either 50 μL or 100 μL of blood was diluted into 5 mL of 37° C. TES buffer (30 mM TES, 130 mM NaCl, 5 mM KCl, pH 7.4 at 25° C.). Diluted sample were loaded into TCS Hemox Analyzer cuvettes and oxygenated for twenty minutes using compressed air. After oxygenation, the samples were deoxygenated using nitrogen gas until the pO2 reached 1.6 millimeters of mercury (mm Hg). Data during this deoxygenation step was collected into Oxygen Equilibrium Curve (OEC) files using the TCS Hemox Analytical Software (HAS). OEC files were then analyzed to obtain the p50 (the partial pressure of oxygen at which 50% of hemoglobin in a sample is saturated with O2) and the p20 (the partial pressure of oxygen at which 20% of hemoglobin in a sample is saturated with O2). Delta p20 values (p20predose−p20sample time) were then used to calculate the % Hb Modification.
# [4] = Phase I study: hemolysis measures / response parameters in subjects with SCD; type: in vivo, human
# Text: as §1
# Other Outcome Measures: • Percentage of sickled cells under ex vivo conditions [Time Frame: 30 days] • Effect of GBT440 on hemolysis as measured by LDH, direct bilirubin, hemoglobin, and reticulocyte count [Time Frame: 30 days] • Change from baseline in pain as measured by visual analog scale [Time Frame: 30 days] • Change from baseline in fatigue as measured by questionnaire [Time Frame: 30 days] • Exercise capacity as measured by 6-minute walk test [Time Frame: 30 days]
# as §2
# Inclusion Criteria: • Healthy male or female of non-child bearing potential; 18 to 55 years old; are non-smokers and have not used nicotine products within 3 months prior to screening. • Male or female, 18 to 60 years old, with sickle cell disease (hemoglobin SS) not requiring chronic blood transfusion therapy; without hospitalization in 30 days before screening or receiving blood transfusion within 30 days before screening; subjects are allowed concomitant use of hydroxyurea if the dose has been stable for the 3 months prior to screening. […]
# sickle cells = experiment: Irreversibly sickled cells counted in peripheral blood smears; type: in vivo, human
# Text: To quantify irreversibly sickled cells (ISCs), six different fields were randomly selected and imaged at 40× magnification per slide. Each field contained 100 to 300 cells and >500 cells (in 3 or more fields) were counted per blood smear slide. Cells that were classically sickled shape or appeared linear (with length equal to or more than 3× the width) with irregular or pointed edges were counted as sickled. Elliptical red blood cells (also appearing linear but with length approximately twice the width) with smooth rounded edges were counted as normal. In general, isolated non-discoid cells with spiky turns were counted as sickled.
# Morphological criteria for sickle cells included the following categories: (1) non-discoid irregular shaped cells with irregular or pointed edges; (2) elliptocytes with length more than twice the width and with irregular or pointed edges; and (3) irregular shaped elliptocytes.
# [5] = 500 mg (Cohort 12), n = 10, subjects with SCD
# [6] = 700 mg (Cohort 11), n = 12, subjects with SCD
# [7] = 1000 mg (500 mg twice daily, Cohort 14), n = 5, subjects with SCD
structure (smiles),measurement,setting,value
"O=Cc1ccc(CO)o1 [Compound 5HMF, 5-hydroxymethyl-2-furfuraldehyde]",hemoglobin modulation,hemoglobin [1],potent hemoglobin modulator both in vitro and in vivo
"CC(C)n1nccc1-c1ncccc1COc1cccc(O)c1C=O [Compound 1, 2-hydroxy-6-((2-(1-isopropyl-1h-pyrazol-5-yl)pyridin-3-yl)methoxy)benzaldehyde]",half-life,[2]; SCD subjects,~38.4 h
same,half-life,[2]; healthy subjects,~72 h
same,increase in GBT440 with dose,[2]; single and multiple dosing,dose proportional increase
same,hemoglobin modification,hemoglobin [3]; 700 mg (FIG. 3),proportional to dose
same,shift of the oxygen equilibrium curve,"hemoglobin [3]; 700 mg vs placebo, SCD subjects (FIG. 3)",left shift of the oxygen equilibrium curve
same,"Hemoglobin, change from baseline to Day 28, median",[4]; [5],0.4 g/dL
same,"Lactate dehydrogenase, change from baseline to Day 28, median",[4]; [5],−19.8%
same,"Reticulocytes, change from baseline to Day 28, median",[4]; [5],−31.2%
same,"Unconjugated bilirubin, change from baseline to Day 28, median",[4]; [5],−30.6%
same,change in hemoglobin over time,"[4]; 500 mg, 700 mg vs placebo (FIG. 4)",rapid and progressive rise in hemoglobin levels
same,percent change in reticulocytes over time,"[4]; 500 mg, 700 mg vs placebo (FIG. 5)",profound decline in reticulocytes
same,"Hemoglobin, change from baseline to Day 28, median",[4]; [6],0.7 g/dL
same,"Lactate dehydrogenase, change from baseline to Day 28, median",[4]; [6],−11.9%
same,"Reticulocytes, change from baseline to Day 28, median",[4]; [6],−37.0%
same,"Unconjugated bilirubin, change from baseline to Day 28, median",[4]; [6],−42.6%
same,"hemoglobin response, higher dose level compared to lower",[4]; 700 mg compared to 500 mg (FIG. 4),trend for a better response
same,"Hemoglobin, change from baseline to Day 28, median",[4]; [7],0.0 g/dL
same,"Lactate dehydrogenase, change from baseline to Day 28, median",[4]; [7],−12.4%
same,"Reticulocytes, change from baseline to Day 28, median",[4]; [7],−49.9%
same,"Unconjugated bilirubin, change from baseline to Day 28, median",[4]; [7],−56.3%
same,reticulocyte counts versus exposure,"[4]; higher GBT440 exposures, day 28 (FIG. 8)",more profound reduction in reticulocyte counts
same,hematologic response by Hb occupancy,[4]; participants who achieved >20% Hb occupancy compared to those who did not,improved hematologic response
same,"Irreversibly sickled cells, change from baseline to Day 28, median",sickle cells; [5],−56.4%
same,percent sickle cells over time,"sickle cells; 500 mg, 700 mg vs placebo, 28 day dosing period (FIG. 6)",reduced sickle cells in the peripheral blood
same,"Irreversibly sickled cells, change from baseline to Day 28, median",sickle cells; [6],−45.9%
same,"Irreversibly sickled cells, change from baseline to Day 28, median",sickle cells; [7],−45.7%
same,sickle cells in peripheral blood smears,"sickle cells; subject treated with 700 mg, day 1 vs day 28 (FIGS. 7A-7B)",marked reduction in sickle cells
